From ChEMBL document CHEMBL1201862, “PubChem BioAssay data set” (2004)
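Dose response: 5 concentrations. Exposure: 48 h. Format: 96-well plates. Endpoint: linear interpolation; highest concentration if not reached. GI50 is the concentration that inhibits growth by half.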 The source made the active and inactive calls. Rule as the data show it: active = GI50 up to about 1.1 µM and inactive = higher.

How the values were obtained:
Experiment in all cases: growth of human tumour cells (NCI), 48 h
Hs-578T = tested on: Hs-578T
HOP-92 = tested on: HOP-92
K562 = tested on: K562
HCT-15 = tested on: HCT-15
RXF 393 = tested on: RXF 393
SK-OV-3 = tested on: SK-OV-3
HCT-116 = tested on: HCT-116
OVCAR-3 = tested on: OVCAR-3
HT-29 = tested on: HT-29
UACC-62 = tested on: UACC-62
MDA-MB-231 = tested on: MDA-MB-231
LOX IMVI = tested on: LOX IMVI
SN12C = tested on: SN12C
RPMI-8226 = tested on: RPMI-8226
BT-549 = tested on: BT-549
KM12 = tested on: KM12
OVCAR-5 = tested on: OVCAR-5
EKVX = tested on: EKVX
NCI-H522 = tested on: NCI-H522
NCI-H226 = tested on: NCI-H226

Row | SMILES | GI50 (Hs-578T) | GI50 (HOP-92) | GI50 (K562) | GI50 (HCT-15) [µM] | GI50 (RXF 393) | GI50 (SK-OV-3) | GI50 (HCT-116) | GI50 (OVCAR-3) | GI50 (HT-29) | GI50 (UACC-62) | GI50 (MDA-MB-231) | GI50 (LOX IMVI) | GI50 (SN12C) | GI50 (RPMI-8226) | GI50 (BT-549) | GI50 (KM12) | GI50 (OVCAR-5) | GI50 (EKVX) | GI50 (NCI-H522) | GI50 (NCI-H226)
1 | O=C1/C(=C/c2ccc(O)c(O)c2)CCC/C1=C\c1ccc(O)c(O)c1 | 3.18 µM (inactive) | 2.98 µM (inactive) | 3.71 µM (inactive) | 4.13 | 2.62 µM (inactive) | 7.96 µM (inactive) | 2.37 µM (inactive) | 3.06 µM (inactive) | 8.09 µM (inactive) | 2.86 µM (inactive) | 5.14 µM (inactive) | 2.11 µM (inactive) | 4.41 µM (inactive) | 2.48 µM (inactive) | 4.74 µM (inactive) | 3.95 µM (inactive) | 14 µM (inactive) | 14.3 µM (inactive) | 0.729 µM (active) | 5.6 µM (inactive)
2 | COCCOC1=C(Cl)C(=O)c2c(O)ccc(O)c2C1=O | 3.24 µM (inactive) | 0.726 µM (active) | 0.635 µM (active) | 1.21 | 0.798 µM (active) | 16.8 µM (inactive) | 0.979 µM (active) | 1.09 µM (active) | 2.37 µM (inactive) | 4.81 µM (inactive) | 1.41 µM (inactive) | 1.16 µM (inactive) | 1.92 µM (inactive) | 0.741 µM (active) | 2.52 µM (inactive) | 9.48 µM (inactive) | 6.93 µM (inactive) | 4.97 µM (inactive) | 0.681 µM (active) | 12.1 µM (inactive)
3 | Cc1cc(Cl)nc2nc(Cl)c(N)cc12 | 10.4 µM (inactive) | 2.18 µM (inactive) | 3.23 µM (inactive) | 1.9 | 8.2 µM (inactive) | 21.3 µM (inactive) | 2.48 µM (inactive) | 1.87 µM (inactive) | 2.15 µM (inactive) | 2.37 µM (inactive) | 3.48 µM (inactive) | 1.91 µM (inactive) | 1.9 µM (inactive) | 2.26 µM (inactive) | 14.6 µM (inactive) | 5.32 µM (inactive) | 17 µM (inactive) | 3.48 µM (inactive) | 4.53 µM (inactive) | 21.5 µM (inactive)
4 | CC(=O)OCC(OC(C)=O)C(OC(C)=O)C(/C=N\Nc1nc2ccccc2c(=O)[nH]1)=N\Nc1nc2ccccc2c(=O)[nH]1 (stereo not given) | > 100 µM (inactive) | > 100 µM (inactive) | > 100 µM (inactive) | > 100 | > 100 µM (inactive) | > 100 µM (inactive) | > 100 µM (inactive) | > 100 µM (inactive) | > 100 µM (inactive) | > 100 µM (inactive) | > 100 µM (inactive) | > 100 µM (inactive) | > 100 µM (inactive) | > 100 µM (inactive) | > 100 µM (inactive) | 4.68 µM (inactive) | > 100 µM (inactive) | > 100 µM (inactive) | > 100 µM (inactive) | > 100 µM (inactive)
5 | COc1ccc(-c2c(C#N)c(=O)nc(SC)n2C2OCC(OC(C)=O)C(OC(C)=O)C2OC(C)=O)cc1 (stereo not given) | 31.6 µM (inactive) | > 100 µM (inactive) | 18.1 µM (inactive) | 34.8 | > 100 µM (inactive) | > 100 µM (inactive) | 31.6 µM (inactive) | > 100 µM (inactive) | 56 µM (inactive) | 33.5 µM (inactive) | 58.7 µM (inactive) | 64.1 µM (inactive) | > 100 µM (inactive) | 37.7 µM (inactive) | 68.2 µM (inactive) | > 100 µM (inactive) | > 100 µM (inactive) | 87.5 µM (inactive) | 74 µM (inactive) | > 100 µM (inactive)
6 | CN1CCN2CCN(C)CCN(CC1)CC2 | > 100 µM (inactive) | > 100 µM (inactive) | > 100 µM (inactive) | > 100 | > 100 µM (inactive) | > 100 µM (inactive) | > 100 µM (inactive) | > 100 µM (inactive) | > 100 µM (inactive) | > 100 µM (inactive) | > 100 µM (inactive) | > 100 µM (inactive) | > 100 µM (inactive) | > 100 µM (inactive) | > 100 µM (inactive) | > 100 µM (inactive) | > 100 µM (inactive) | > 100 µM (inactive) | > 100 µM (inactive) | > 100 µM (inactive)
7 | C=CCn1c(=O)c(C)cn(/C(=C/C(=O)OCC)C(=O)OCC)c1=O | 24.5 µM (inactive) | 3.52 µM (inactive) | 4.19 µM (inactive) | 2.97 | 14 µM (inactive) | 60 µM (inactive) | 9.62 µM (inactive) | 9.66 µM (inactive) | 12.9 µM (inactive) | 16.5 µM (inactive) | 15.5 µM (inactive) | 6.28 µM (inactive) | 14.2 µM (inactive) | 14.6 µM (inactive) | 16.2 µM (inactive) | 17.2 µM (inactive) | 16.4 µM (inactive) | 14 µM (inactive) | 1.69 µM (inactive) | 31.6 µM (inactive)
8 | Cc1ccc(/N=N/c2c(O)c3ccccc3[nH]c2=O)c(S(=O)(=O)N(C)C)c1 | > 100 µM (inactive) | > 100 µM (inactive) | > 100 µM (inactive) | > 100 | > 100 µM (inactive) | > 100 µM (inactive) | > 100 µM (inactive) | > 100 µM (inactive) | > 100 µM (inactive) | > 100 µM (inactive) | > 100 µM (inactive) | > 100 µM (inactive) | > 100 µM (inactive) | > 100 µM (inactive) | > 100 µM (inactive) | > 100 µM (inactive) | > 100 µM (inactive) | > 100 µM (inactive) | > 100 µM (inactive) | > 100 µM (inactive)
